Data: patent publication US9220705B2, “Method of treating colorectal cancer” (priority 2013, dated 2015)

Experiments:
DLD-1 = test: MTT cytotoxicity assay, 72 h; type: cell-based, human; conditions: DLD-1, colon
Description: (§1) Human breast (MCF-7) and colon (HCT-15, DDL1, SW480 and CaCo-2) carcinoma cell lines along with melanoma (A375) were obtained from the American Type Culture Collection (ATCC, Rockville, Md.). A431 are human cervical carcinoma cells kindly provided by Prof. F. Zunino (Molecular Pharmacology Unit, Experimental Oncology and Molecular Medicine, Istituto Nazionale dei Tumori, Milan, Italy). […] G. Marverti (Dept. of Biomedical Science, University of Modena, Italy). LoVo human colon-carcinoma cell line and its multidrug-resistant sublime (LoVo MDR) were kindly provided by Prof F. Maj one (Department of Biology of Padova University, Italy). […] Cell lines were maintained in the logarithmic phase at 37° C. in a 5% carbon dioxide atmosphere using the following culture media containing 10% fetal calf serum (Euroclone, Milan, Italy), antibiotics (50 units mL^−1 penicillin and 50 μg mL^−1 streptomycin), and 2 mM L-glutamine in: i) RPMI-1640 medium (Euroclone) for MCF-7, HCT-15, A431, DLD 1, 2008, and C13* cells; ii) F-12 HAM'S (Sigma Chemical Co.) for LoVo, LoVo MDR, and LoVo-OXP cells; iii) DMEM for A375 and SW 480 cells; and iv) MEM for CaCo-2 cells.
(§2) The growth inhibitory effect towards tumor cell lines was evaluated by means of the MTT (3-(4,5-dimethylthiazol-2-yl)-2,5-diphenyltetrazolium bromide) assay (Alley, M. C., et al., Cancer Res. 1988, 48, 589-601).
(§3) Briefly, depending upon the growth characteristics of the cell line, 3-8×10^3 cells well^−1, were seeded in 96-well microplates in growth medium (100 μL) and then incubated at 37° C. in a 5% carbon dioxide atmosphere. After 24 h, the medium was removed and replaced with a fresh one containing the compound to be studied, at the appropriate concentration, dissolved in 0.9% sodium chloride solution just before use. Triplicate cultures were established for each treatment. After 72 h, each well was treated with […] of a 5 mg mL^−1 MTT saline solution and, after 5 h of incubation, 100 μL of a sodium dodecylsulfate (SDS) solution in 0.01 M HCl were added. After an overnight incubation, the inhibition of cell growth induced by the tested complexes was determined by measuring the absorbance of each well at 570 nm using a BioRad 680 microplate reader. Mean absorbance for each drug dose was expressed as percentage of the control and plotted vs. drug concentration. Dose-response curves were fitted and IC50 values were calculated with four parameter logistic model (4PL).
(§4) Compound 1 was prepared for the first time almost twenty years ago however, until now, it had been tested (both in vitro and in vivo) only in a limited number of tumor cell lines (Hoeschele, J. D., et al., J. Med. Chem. 1994, 37, 2630-2636 and Shamsuddin, S., et al., J. Inorg. Biochem. 1996, 61, 291-301). The Pt(II) and Pt(IV) complexes containing isomeric forms of diaminocyclohexane, [PtCl2(cis-1,4-DACHA](1), [PtCl2(1R,2R-DACH)] (2), [Pt(OXA)(cis-1,4-DACH)] (3), cis,trans,cis-[Pt^IVCl2(OH)2(cis-1,4-DACH)] (4), cis,trans,cis-[Pt^IVCl2(DCA)2(cis-1,4-DACH)] (5), [Pt(CBDCA)(cis-1,4-DACH)] (6), cis,trans,cis-[Pt^IV(OXA)(OH)2(cis-1,4-DACH)] (7), and cis,trans,cis-[Pt^IV(OXA)(DCA)2(cis-1,4-DACH)] (8) were evaluated for their cytotoxic activity towards a panel of human tumor cell lines including cervical (A431), breast (MCF-7), cancers along with a melanoma (A375) and 4 different colon cancer cell lines corresponding to different stages of the disease progression (HCT-15, SW480, CaCo-2, DLD-1). The cytotoxicity was evaluated by means of the MTT test for 72 h treatment with increasing concentrations of the tested compounds.

SW480 = test: MTT cytotoxicity assay, 72 h; type: cell-based, human; conditions: SW480, colon
Description: as §1, §2, §3, §4

A375 = test: MTT cytotoxicity assay, 72 h; type: cell-based, human; conditions: A375, skin
Description: as §1, §2, §3, §4

HCT-15 = test: MTT cytotoxicity assay, 72 h; type: cell-based, human; conditions: HCT-15, colon
Description: as §1, §2, §3, §4

MCF-7 = test: MTT cytotoxicity assay, 72 h; type: cell-based, human; conditions: MCF-7, breast
Description: as §1, §2, §3, §4

A431 = test: MTT cytotoxicity assay, 72 h; type: cell-based, human; conditions: A431, cervix
Description: as §1, §2, §3, §4

CaCo-2 = test: MTT cytotoxicity assay, 72 h; type: cell-based, human; conditions: CaCo-2, colon
Description: (§5) Human breast (MCF-7) and colon (HCT-15, DDL1, SW480 and CaCo-2) carcinoma cell lines along with melanoma (A375) were obtained from the American Type Culture Collection (ATCC, Rockville, Md.). A431 are human cervical carcinoma cells kindly provided by Prof. F. Zunino (Molecular Pharmacology Unit, Experimental Oncology and Molecular Medicine, Istituto Nazionale dei Tumori, Milan, Italy). […] G. Marverti (Dept. of Biomedical Science, University of Modena, Italy). LoVo human colon-carcinoma cell line and its multidrug-resistant sublime (LoVo MDR) were kindly provided by Prof F. Maj one (Department of Biology of Padova University, Italy).
as §2
Briefly, depending upon the growth characteristics of the cell line, 3-8×10^3 cells well^−1, were seeded in 96-well microplates in growth medium (100 μL) and then incubated at 37° C. in a 5% carbon dioxide atmosphere. […] After an overnight incubation, the inhibition of cell growth induced by the tested complexes was determined by measuring the absorbance of each well at 570 nm using a BioRad 680 microplate reader. Mean absorbance for each drug dose was expressed as percentage of the control and plotted vs. drug concentration. […]

LoVo colon cancer cells = test: MTT cytotoxicity assay, cross-resistance profile; type: cell-based, human; conditions: 72 h
Description: as §5, §2, §3
(§6) A LoVo cell line retaining a multidrug resistance phenotype was also considered (LoVo MDR). Cross-resistance profiles were evaluated by means of the resistance factor (RF), which is defined as the ratio between the IC50 value for the resistant cells and that arising from the sensitive cells (Table 2).

[1] = test system: C13* cisplatin resistant ovarian cancer cells; test: MTT cytotoxicity assay, cross-resistance profile; type: cell-based, human
Description: as §1, §2, §3, §6

[2] = test system: LoVo-OXP oxaliplatin resistant colon cancer cells; test: MTT cytotoxicity assay, cross-resistance profile; type: cell-based, human
Description: as §1, §2, §3, §6

[3] = test system: 2008 ovarian cancer cells; test: MTT cytotoxicity assay, cross-resistance profile; type: cell-based, human; conditions: 72 h
Description: as §1, §2, §3, §6

[4] = test system: panel of human tumor cell lines (A431, MCF-7, A375, HCT-15, SW480, CaCo-2, DLD-1); test: MTT cytotoxicity, comparison over the Table 1 panel; type: cell-based; conditions: in five out of the seven cell lines
Procedure: as §3, with “After” for “Briefly, depending upon the growth characteristics of the cell line, 3-8×10^3 cells well^−1, were seeded in 96-well microplates in growth medium (100 μL) and then incubated at 37° C. in a 5% carbon dioxide atmosphere. After”
The cytotoxicity was evaluated by means of the MTT test for 72 h treatment with increasing concentrations of the tested compounds.

[5] = test system: LoVo MDR multidrug resistant colon carcinoma subline; test: MTT cytotoxicity assay, cross-resistance profile; type: cell-based, human
Description: as §1, §2, §3, §6
In Table 2 are also reported the results obtained in a multidrug resistant (MDR) colon carcinoma subline, LoVo MDR, in which the resistance to doxorubicin, a drug belonging to the MDR spectrum, is associated with an overexpression of multi-specific drug transporters, such as the 170 kDa P-glycoprotein (P-gp) (Wersinger, C., et al., Amino Acids 2000, 19, 667-685). It is well known that acquired MDR, whereby cells become refractory to multiple drugs, poses most important challenge to the success of anticancer chemotherapy.

“(OC-6-33)-dichloro(cis-1,4-cyclohexanediamine-N,N′)dihydroxyplatinum [Compound 4]” was tested, and the IC50 (DLD-1) was 7.74 ± 2.16 µM, the IC50 (SW480) was 6.32 ± 2.15 µM and the IC50 (A375) was 6.23 ± 1.96 µM. It also gave an IC50 (HCT-15) of 10.3 ± 1.42 µM, an IC50 (MCF-7) of 7.01 ± 2.05 µM and an IC50 (A431) of 6.33 ± 1.99 µM. It also gave an IC50 (CaCo-2) of 7.12 ± 3.13 µM, an IC50 (LoVo colon cancer cells) of 6.64 ± 2.7 µM and an IC50 ([1]; C13*, 72 h, MTT) of 13.8 ± 3.53 µM. The “R.F. (resistance factor)” value ([1]; IC50 C13* / IC50 2008, cross-resistance with cisplatin) was 1.5, the “R.F. (resistance factor)” value ([2]; IC50 LoVo-OXP / IC50 LoVo, cross-resistance with oxaliplatin) was 1.6 and the IC50 ([2]; LoVo-OXP, 72 h, MTT) was 9.46 ± 2.15 µM. The IC50 [3] was 9.42 ± 1.16 µM, the “IC50 values fold lower than that of cisplatin” value [4] was “up to 2” and the “R.F. (resistance factor)” value ([5]; IC50 LoVo-MDR / IC50 LoVo) was 1.5. It also gave an IC50 ([5]; LoVo-MDR, 72 h, MTT) of 9.26 ± 2.11 µM.
